# From paper PMC10672842, “Anti-Trypanosoma cruzi Activity, Mutagenicity, Hepatocytotoxicity and Nitroreductase Enzyme Evaluation of 3-Nitrotriazole, 2-Nitroimidazole and Triazole Derivatives” (Molecules, 2023)
# Where two headings read alike, the source gives them in different places.
# What was measured:
# [1] = tested on: T. cruzi nitroreductase enzyme (TcNTR); test: Kinetic assay with Trypanosoma cruzi nitroreductase enzyme (NADH oxidation); format: biochemical
# Description: To determine a potential mechanism of action, nitroazole derivatives 5, 6, 8 and 9 were evaluated as substrates of the T. cruzi nitroreductase enzyme (TcNTR) and compared to BZN, the reference prodrug (Table 2). The enzymatic activity was measured by monitoring the oxidation of NADH, the first substrate of the enzyme, via spectrophotometric assays. […] At a concentration of 25 µM, derivatives 5 and 8 were metabolized at rates 2.3 and 2.6 times higher than that of BZN, respectively. At 50 µM, the compounds presented metabolism rates 1.6 and 3.0 times higher than that of BZN, respectively.
# The protocols for expressing, purifying and conducting kinetic analysis with the recombinant TcNTR enzyme were adapted from the methods originally developed by Shane Wilkinson, with certain modifications.
# For the kinetics assays, it was prepared a 200 μL solution which included 50 mM Tris-Base at pH 7.5, with a constant concentration of both NADH (50 μM) and the substances 5, 6, 8, 9 or BZN. Specifically, two distinct fixed concentrations (25 and 50 μM) of the substances 5, 6, 8, 9 or BZN were tested. These prepared mixtures were then incubated for 5 min at room temperature. Subsequently, the reaction was initiated by adding NTR to achieve a final concentration of 10 μg/mL. The reaction rates were monitored using a Hitachi U-2900 spectrophotometer, measuring the consumption of the primary substrate, NADH (λ = 340 nm; ε = 6.220 M^−1 cm^−1), over a 2-min interval. The resulting data curves were analyzed through linear regression using OriginPro 2016 software. To evaluate the reaction rate (Kobs) obtained from the 25 and 50 μM concentrations of each substrate, comparisons were made with the reference values for BZN. Measurement errors were calculated using the formula: Error = Z × σ/√n, where ‘Z’ denotes the critical value, ‘σ’ represents the standard deviation and ‘n’ is the number of test measurements, which were performed at least in triplicate.
# S. typhimurium TA98 = test: Salmonella reverse mutation assay (Ames test, preincubation), TA98
# Description: (§1) The compounds were tested in a reverse mutation assay preincubation protocol in the absence and presence of metabolic activation following standard protocols previously proposed by Maron and Ames. The histidine-dependent (his^−) strains TA98 and TA100 of Salmonella typhimurium were inoculated in 10 mL of Oxoid nutrient broth No. 2 containing 25 µg/mL ampicillin and incubated overnight (15–18 h) at 37 ± 1 °C on an orbital shaker (CT-712, Cientec, Belo Horizonte, MG, Brazil) at 150 rpm, obtaining a concentration of 1–2 × 10^9 cells/mL, confirmed by titration in nutrient agar plates. Briefly, 100 µL of stationary growth cultures of each strain were preincubated for 20 min on an orbital shaker (150 rpm) at 37 ± 1 °C, with 500 µL of 0.2 M phosphate buffer pH 7.4, or 500 µL of S9 mix 4% (Molecular Toxicology, Baltimore, MD, USA), and 100 µL of compound dilutions (0–5000 µM) or controls. DMSO 1% was used as a negative control. […] After incubation, 2 mL of top agar (0.7% agar, 0.5% NaCl, 0.05 mM L-histidine and D-biotin) at 45 ± 3 °C was added and gently mixed. The final mixture was poured on glucose minimal agar plates (1.5% agar, 10 g/L MgSO4·7H2O; 100 g/L of C6H8O7·H2O; 500 g/L K2HPO4; 175 g/L Na(NH4)HPO4·4H2O, 2% glucose) and incubated for 72 h at 37 ± 1 °C. The results were expressed as the mean of revertant colonies (His^+) per plate, standard deviation (SD) and mutagenicity induction fold (IF), calculated as the ratio between the number of colonies in the test group and the number of colonies in the negative control group. Mutagenic potency was calculated as the slope of the linear portion of the concentration–response function and expressed as revertants/µM. All assays were performed in triplicate and repeated at least two times. Statistical analyses were carried out in GraphPad Prism software (version 5.00, GraphPad Software, Boston, MA, USA).
# S. typhimurium TA100 = tested on: S. typhimurium TA100
# Description: as §1
structure (smiles),measurement,setting,value
"O=C(Cn1ccnc1[N+](=O)[O-])NCc1ccccc1 [BZN, benznidazole, reference compound]",Kobs,[1]; 25 µM Derivative + 50 µM NADH,0.36 µmol of oxidized NADH/min/mg TcNTR
same,Kobs,[1]; 50 µM Derivative + 50 µM NADH,0.36 µmol of oxidized NADH/min/mg TcNTR
same,IF (induction factor),"S. typhimurium TA98; TA98, +S9, 0.5 µM",0.9
same,"revertant His+ colonies, mean ± SD","S. typhimurium TA98; TA98, +S9, 0.5 µM",21 ± 2
same,IF (induction factor),"S. typhimurium TA98; TA98, +S9, 5 µM",0.9
same,"revertant His+ colonies, mean ± SD","S. typhimurium TA98; TA98, +S9, 5 µM",17 ± 2
same,IF (induction factor),"S. typhimurium TA98; TA98, +S9, 50 µM",0.7
same,"revertant His+ colonies, mean ± SD","S. typhimurium TA98; TA98, +S9, 50 µM",18 ± 1
same,IF (induction factor),"S. typhimurium TA98; TA98, +S9, 500 µM",1.3
same,"revertant His+ colonies, mean ± SD","S. typhimurium TA98; TA98, +S9, 500 µM",31 ± 6
same,IF (induction factor),"S. typhimurium TA98; TA98, +S9, 5000 µM",1.4
same,"revertant His+ colonies, mean ± SD","S. typhimurium TA98; TA98, +S9, 5000 µM",33 ± 4
same,IF (induction factor),"S. typhimurium TA98; TA98, −S9, 0.5 µM",1.1
same,"revertant His+ colonies, mean ± SD","S. typhimurium TA98; TA98, −S9, 0.5 µM",28 ± 6
same,IF (induction factor),"S. typhimurium TA98; TA98, −S9, 5 µM",1.1
same,"revertant His+ colonies, mean ± SD","S. typhimurium TA98; TA98, −S9, 5 µM",28 ± 4
same,IF (induction factor),"S. typhimurium TA98; TA98, −S9, 50 µM",1.1
same,"revertant His+ colonies, mean ± SD","S. typhimurium TA98; TA98, −S9, 50 µM",28 ± 2
same,IF (induction factor),"S. typhimurium TA98; TA98, −S9, 500 µM",1.4
same,"revertant His+ colonies, mean ± SD","S. typhimurium TA98; TA98, −S9, 500 µM",37 ± 5
same,IF (induction factor),"S. typhimurium TA98; TA98, −S9, 5000 µM",2.5
same,"revertant His+ colonies, mean ± SD","S. typhimurium TA98; TA98, −S9, 5000 µM",67 ± 4
same,Mutagenic potency (slope of the linear portion of the concentration–response function),"S. typhimurium TA100; TA100, +S9",1382.2 revertants/µM
same,IF (induction factor),"S. typhimurium TA100; TA100, +S9, 0.5 µM",0.9
same,"revertant His+ colonies, mean ± SD","S. typhimurium TA100; TA100, +S9, 0.5 µM",95 ± 3
same,IF (induction factor),"S. typhimurium TA100; TA100, +S9, 5 µM",1.0
same,"revertant His+ colonies, mean ± SD","S. typhimurium TA100; TA100, +S9, 5 µM",110 ± 8
same,IF (induction factor),"S. typhimurium TA100; TA100, +S9, 50 µM",2.5
same,"revertant His+ colonies, mean ± SD","S. typhimurium TA100; TA100, +S9, 50 µM",269 ± 13
same,IF (induction factor),"S. typhimurium TA100; TA100, +S9, 500 µM",8.6
same,"revertant His+ colonies, mean ± SD","S. typhimurium TA100; TA100, +S9, 500 µM",907 ± 10
same,Mutagenicity in the Ames test (verdict),"S. typhimurium TA100; TA100, absence or presence of metabolic activation",mutagenic
same,Mutagenic potency (slope of the linear portion of the concentration–response function),"S. typhimurium TA100; TA100, −S9",1789.9 revertants/µM
same,IF (induction factor),"S. typhimurium TA100; TA100, −S9, 0.5 µM",1.0
same,"revertant His+ colonies, mean ± SD","S. typhimurium TA100; TA100, −S9, 0.5 µM",130 ± 6
same,IF (induction factor),"S. typhimurium TA100; TA100, −S9, 5 µM",1.6
same,"revertant His+ colonies, mean ± SD","S. typhimurium TA100; TA100, −S9, 5 µM",217 ± 13
same,IF (induction factor),"S. typhimurium TA100; TA100, −S9, 50 µM",6.2
same,"revertant His+ colonies, mean ± SD","S. typhimurium TA100; TA100, −S9, 50 µM",852 ± 40
same,IF (induction factor),"S. typhimurium TA100; TA100, −S9, 500 µM",28.2
same,"revertant His+ colonies, mean ± SD","S. typhimurium TA100; TA100, −S9, 500 µM",3848 ± 11
same,IF (induction factor),"S. typhimurium TA100; TA100, −S9, 5000 µM",53.0
same,"revertant His+ colonies, mean ± SD","S. typhimurium TA100; TA100, −S9, 5000 µM",7264 ± 62
same,Mutagen classification according to Claxton et al.,"S. typhimurium TA100; TA100, −S9 and +S9",extremely high mutagen
same,IF (induction factor),"S. typhimurium TA1535; TA1535, +S9, 0.5 µM",1.3
same,"revertant His+ colonies, mean ± SD","S. typhimurium TA1535; TA1535, +S9, 0.5 µM",13 ± 1
same,IF (induction factor),"S. typhimurium TA1535; TA1535, +S9, 5 µM",1.6
same,"revertant His+ colonies, mean ± SD","S. typhimurium TA1535; TA1535, +S9, 5 µM",17 ± 3
same,IF (induction factor),"S. typhimurium TA1535; TA1535, +S9, 50 µM",2.1
same,"revertant His+ colonies, mean ± SD","S. typhimurium TA1535; TA1535, +S9, 50 µM",22 ± 3
same,IF (induction factor),"S. typhimurium TA1535; TA1535, +S9, 500 µM",2.9
same,"revertant His+ colonies, mean ± SD","S. typhimurium TA1535; TA1535, +S9, 500 µM",31 ± 2
same,IF (induction factor),"S. typhimurium TA1535; TA1535, +S9, 5000 µM",3.0
same,"revertant His+ colonies, mean ± SD","S. typhimurium TA1535; TA1535, +S9, 5000 µM",32 ± 4
same,Mutagenicity in the Ames test (verdict),"S. typhimurium TA1535; TA1535, absence or presence of metabolic activation",mutagenic
same,IF (induction factor),"S. typhimurium TA1535; TA1535, −S9, 0.5 µM",1.5
same,"revertant His+ colonies, mean ± SD","S. typhimurium TA1535; TA1535, −S9, 0.5 µM",11 ± 2
same,IF (induction factor),"S. typhimurium TA1535; TA1535, −S9, 5 µM",1.5
same,"revertant His+ colonies, mean ± SD","S. typhimurium TA1535; TA1535, −S9, 5 µM",11 ± 5
same,IF (induction factor),"S. typhimurium TA1535; TA1535, −S9, 50 µM",1.5
same,"revertant His+ colonies, mean ± SD","S. typhimurium TA1535; TA1535, −S9, 50 µM",11 ± 1
same,IF (induction factor),"S. typhimurium TA1535; TA1535, −S9, 500 µM",2.5
same,"revertant His+ colonies, mean ± SD","S. typhimurium TA1535; TA1535, −S9, 500 µM",18 ± 4
same,IF (induction factor),"S. typhimurium TA1535; TA1535, −S9, 5000 µM",4.9
same,"revertant His+ colonies, mean ± SD","S. typhimurium TA1535; TA1535, −S9, 5000 µM",36 ± 5
